Results published in PMC10057480, “Expanding the Library of 1,2,4-Oxadiazole Derivatives: Discovery of New Farnesoid X Receptor (FXR) Antagonists/Pregnane X Receptor (PXR) Agonists” (Molecules, 2023).
Where “and” joins values, the source holds several entries; their conditions need not be identical. Equal values may be shown once.

Molecular target: T1, PXR (Homo sapiens, UniProt O75469)
T1 construct: expressed in transfected cells; host or cells: HepG2
T1 sequence (O75469 1-434): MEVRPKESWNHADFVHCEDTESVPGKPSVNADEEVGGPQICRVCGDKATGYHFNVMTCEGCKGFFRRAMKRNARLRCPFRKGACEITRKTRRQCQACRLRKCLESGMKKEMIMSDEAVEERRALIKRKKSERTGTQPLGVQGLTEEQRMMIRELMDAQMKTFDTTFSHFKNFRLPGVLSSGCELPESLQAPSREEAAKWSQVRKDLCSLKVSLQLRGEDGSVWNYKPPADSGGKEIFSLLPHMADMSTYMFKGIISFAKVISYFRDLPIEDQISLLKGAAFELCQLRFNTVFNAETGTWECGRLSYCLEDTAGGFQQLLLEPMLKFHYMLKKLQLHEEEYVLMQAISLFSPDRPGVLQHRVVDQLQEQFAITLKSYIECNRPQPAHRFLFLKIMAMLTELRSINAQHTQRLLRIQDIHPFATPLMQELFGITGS
T1 sequence (P19793 1-462 partner): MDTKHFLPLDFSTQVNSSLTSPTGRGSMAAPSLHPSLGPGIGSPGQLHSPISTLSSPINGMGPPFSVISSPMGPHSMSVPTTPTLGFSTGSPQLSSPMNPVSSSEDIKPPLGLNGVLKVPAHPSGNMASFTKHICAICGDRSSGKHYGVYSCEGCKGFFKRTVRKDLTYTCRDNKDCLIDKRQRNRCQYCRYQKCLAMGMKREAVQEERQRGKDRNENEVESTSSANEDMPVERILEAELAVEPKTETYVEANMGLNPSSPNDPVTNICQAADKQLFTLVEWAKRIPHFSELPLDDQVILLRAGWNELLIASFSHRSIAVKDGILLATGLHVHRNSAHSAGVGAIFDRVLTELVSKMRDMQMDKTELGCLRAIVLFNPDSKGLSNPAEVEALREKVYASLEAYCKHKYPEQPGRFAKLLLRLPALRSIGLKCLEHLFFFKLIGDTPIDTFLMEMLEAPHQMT
Assay: PXR luciferase reporter transactivation assay (agonism) on HepG2 cells
Type: cell-based
Settings: compound 10 μM, maximal transactivation compared to Rifaximin 10 μM, mean ± SD, at least three experiments
Procedure: The antagonistic activity on FXR was investigated using HepG2 cells transfected with 100 ng of pSG5-FXR and pSG5-RXR, 200 ng of the reporter vector p(hsp27)-TK-LUC containing the FXR response element, and 100 ng of the pGL4.70 vector encoding the human Renilla gene used as a transfection control. Cells were stimulated with the agonist 6-ECDCA (10 µM) alone or in combination with compounds 2–11 after 24 h. In another experimental setting, HepG2 cells were transfected using 100 ng of pSG5-PXR, 100 ng of pSG5-RXR, and 100 ng of pGL4.70, along with the reporter vector pGL3(henance)PXRE. At 24 h post-transfection, cells were stimulated with rifaximin 10 μM (as a positive control) or compounds 2–11 (10 μM). The specificity of compounds 5 and 11 versus FXR and PXR was tested using HepG2 cells transiently transfected with 200 ng of the reporter vector p(UAS)5XTKLuc, 100 ng of a vector containing the ligand binding domain of LXRα or LXRβand 100 ng of pGL4.70, a vector encoding the human Renilla gene. At 24 h post-transfection, cells were stimulated for 18 h with GW3965 (5 μM), compounds 5 and 11 (10 μM), and the combination of GW3965 plus 5 or 11 (50 μM). Cellular lysate was assayed for luciferase and Renilla activities after 18 h using the Dual-Luciferase Reporter assay system (E1980, Promega, Madison, WI, USA). The activity of luciferase was measured using the Glomax 20/20 luminometer (Promega, Madison, WI, USA) and normalized with Renilla activities.

| PXR Agonism Eff (%) | Compound |
| --- | --- |
| 105% and 105 ± 15% | OCc1ccc(CN2CCC(c3nc(-c4ccc5ccccc5c4)no3)CC2)cc1 [Compound 11, 5-[1-(4-(Hydroxymethyl)benzyl)piperidin-4-yl]-3-(naphthalen-2-yl)-1,2,4-oxadiazole] |
| 71% and 71 ± 4% | CCCCCN1CCC(c2nc(-c3ccc4ccccc4c3)no2)CC1 [Compound 5, 3-(Naphthalen-2-yl)-5-(1-pentylpiperidin-4-yl)-1,2,4-oxadiazole] |
